Experimental data published in paper PMC4171606, “A novel copper(I) complex induces ER-stress-mediated apoptosis and sensitizes B-acute lymphoblastic leukemia cells to chemotherapeutic agents” (Oncotarget, 2014).

Tests used:
[1] = system: PHA stimulated healthy PBMC; experiment: MTT growth inhibition, 72 h; format: cell-based, human; details: mean ± SE
[2] = system: human leukemia cell lines; experiment: MTT growth inhibition, panel of twelve leukemia cell lines, 72 h; format: cell-based; details: healthy lymphocytes vs B-leukemia cells
Description: [Cu(thp)4][PF6] (CP) was evaluated for its growth inhibition activity on a panel of twelve different human leukemia cell lines (five B-acute lymphoblastic leukemia, three T-acute lymphoblastic leukemia, three acute myeloid leukemia and one chronic myeloid leukemia). Cells were treated for 72 h with CP and cell viability was evaluated by MTT test. […] This abnormal high expression of proteasomal proteins and mRNA seem to be correlated to the hyperproliferation of these cancer cells and to the sensitivity towards proteasome inhibitors.
The human leukemia cell lines RS 4;11, SEM, REH, RCH-ACV, MHH-CALL2, Jurkat, CCRF-CEM, HSB2, HL-60, K562, THP-1, MV4;11 were purchased from the American Type Culture Collection. Cells were cultured in RPMI 1640 (Life Technologies, Italy) supplemented with 10% fetal bovine serum (FBS), glutamine (2 mM; Life Technologies, Italy), penicillin (100 U/ml; Life Technologies, Italy) and streptomycin (100 μg/ml; Life Technologies, Italy), and maintained at 37°C in a humidified atmosphere with 5% CO2. The cytotoxic activity of CP was determined using a standard 3-[4,5-dimethylthiazol-2-yl]-2,5-diphenyltetrazodium bromide (MTT) based colorimetric assay (Sigma-Aldrich, Italy). Briefly, cells were seeded at a density of 2×10^4 cells/well in 96-well microtiter plates. After 24 h, cells were exposed to the test compound. After different times, cell survival was determined by the addition of an MTT solution as previously described.

[3] = system: Bone marrow cells from healthy donors; experiment: Annexin-V-FITC/PI viability by flow cytometry, 24 h; format: cell-based, human; details: CP 2.5 μM and 5 μM
Description: CP growth inhibitory activity was measured on primary cultures derived from pediatric patients affected by B-acute lymphoblastic leukemia. […] In particular, in resting and in PHA-stimulated PBMC, and in CD19^+ cells GI50 was higher than 10 μM confirming that CP preferentially affects leukemia cells.
FIGURE 6 CP effects on B-ALL primary cultures (A) Blast cells from six B-ALL patients were incubated for 24 h with different concentrations of CP. For the sake of comparison CD19^+ cells from peripheral blood of healthy donors, and PBMC were also incubated with CP in the presence or absence of PHA. Cell viability were assayed by MTT analysis. Data are represented as mean ± S.E.M of four independent experiments. (B) Bone marrow cells from healthy donors were treated for 24 h with CP (2.5 μM and 5 μM). Cell viability was evaluated on the whole population by flow cytometry after staining the cells with Annexin-V-FITC and PI. are represented as mean ± S.E.M of 3 independent experiments. […]
Surface exposure of PS by apoptotic cells was measured by flow cytometry with a Coulter Cytomics FC500 (Beckmann Coulter, USA) by adding Annexin V-FITC and propidium iodide (PI) to cells according to the manufacturer's instructions (Annexin-V Fluos, Roche Diagnostic, Italy).

ubiquitinated proteins = experiment: Western blot, Ubiquitin accumulation; format: cell-based, human
Description: FIGURE 3 CP treatment affects Ubiquitin Proteasome System (UPS) 26S proteasome (100 μg) semipurified from (A) SEM and (B) RS4;11 cells was incubated for 60 min at 37 °C with CP at different concentrations. Chymotrypsin (CT), trypsin (T) and peptidyl glutamyl peptide hydrolyzing (PGPH) catalytic activity were measured fluorimetrically (excitation 370, nm emission 460) by following the release of free AMC from synthetic substrates N-Suc-Leu-Leu-Val-Tyr-AMC, Boc-Gln-Ala-Arg-AMC and Z-Leu-Leu-Glu-AMC, specific for CT, T and PGPH activity, respectively. (C) Cells were incubated with CP 2.5 μM for the indicated times and then western blot analyses were performed to evaluate Ubiquitin accumulation.
In normal conditions, misfolded proteins in the ER are driven to the cytoplasm, where upon ubiquitination, are degraded by the proteasome system. […] To assess if CP worked as other proteasome inhibitors, we evaluated the accumulation of ubiquitin after 1.5, 3, and 6 h of treatment.
Cells were treated with CP and, after different times, were collected, centrifuged and washed with ice cold phosphate-buffered saline (PBS). The pellet was then resuspended in lysis buffer as described. The protein concentration in the supernatant was determined using the BCA protein assay (Pierce, Italy). […]

F[P-](F)(F)(F)(F)F.OCP(CO)CO.OCP(CO)CO.OCP(CO)CO.OCP(CO)CO.[Cu+] [CP, [Cu(thp)4][PF6]]
GI50 [1]: 16.9 ± 1.6 µM | cytotoxic activity on healthy lymphocytes lower than B-leukemia cells [2]: 5-10 fold | viability of lymphocyte and monocyte populations [3]: did not affect the viability | onset of accumulation of ubiquitinated proteins (ubiquitinated proteins; RS4;11, CP 2.5 μM): ≥ 3 h | onset of accumulation of ubiquitinated proteins (ubiquitinated proteins; SEM, CP 2.5 μM): ≥ 1.5 h
